# Results as given in US9163240B2, “SR-BI mutation as a predictor of low progesterone levels and poor fetal viability during pregnancy” (The Johns Hopkins University, priority 2009, dated 2015).
# Experiments:
# [1] = tested on: HGL5 cells; assay: Progesterone secretion in HGL5 granulosa cells (RIA); assay type: cell-based, human; settings: for rescue of impaired progesterone secretion in SR-BI KD cells: SR-BI KD cells incubated with the agent
# [2] = tested on: female knockout mice; settings: probucol added in the chow diet; cited from earlier work
Compound,rescue of impaired progesterone secretion in SR-BI KD cells [1],also measured
"CC(C)CCC(O)[C@@H](C)[C@H]1CC[C@H]2[C@@H]3CC=C4C[C@@H](O)CC[C@]4(C)[C@H]3CC[C@]12C (stereo partly shown) [22-OH cholesterol, 22-hydroxycholesterol]",did not overcome this impairment,
"C=C[C@@]1(C)CC(=O)[C@]2(O)[C@@]3(C)[C@@H](O)CCC(C)(C)[C@@H]3[C@H](O)[C@H](OC(C)=O)[C@@]2(C)O1 [Fo, Forskolin]",,"progesterone secretion higher as compared with DMSO ([1]; scrambled cells, 24 h, Fo 10 μM, serum 10%, HDL or LDL 50 μg protein/ml, p<0.001): > 2 fold"
CCCC(=O)Nc1ncnc2c1ncn2[C@@H]1O[C@@H]2COP(=O)(O)O[C@H]2[C@H]1OC(=O)CCC [dibutryl cAMP],did not overcome the defect,
CC(C)(Sc1cc(C(C)(C)C)c(O)c(C(C)(C)C)c1)Sc1cc(C(C)(C)C)c(O)c(C(C)(C)C)c1 [probucol],,fertility of SR-BI knockout female mice [2]: restored
